# Test results taken from EP4227307A1 (Genzyme Corporation, priority 2022, dated 2023).
# Structures can show the parent of a compound that is named as a salt.
# Molecular target: T1, human recombinant 6His-Nterm SHP2 full-length (Thr2-Arg593) (Homo sapiens, UniProt Q06124)
# T1 construct: 6His-Nterm SHP2 full-length (Thr2-Arg593, R&D system); 6His (N); purchased R&D system
# T1 sequence (Q06124 2-593): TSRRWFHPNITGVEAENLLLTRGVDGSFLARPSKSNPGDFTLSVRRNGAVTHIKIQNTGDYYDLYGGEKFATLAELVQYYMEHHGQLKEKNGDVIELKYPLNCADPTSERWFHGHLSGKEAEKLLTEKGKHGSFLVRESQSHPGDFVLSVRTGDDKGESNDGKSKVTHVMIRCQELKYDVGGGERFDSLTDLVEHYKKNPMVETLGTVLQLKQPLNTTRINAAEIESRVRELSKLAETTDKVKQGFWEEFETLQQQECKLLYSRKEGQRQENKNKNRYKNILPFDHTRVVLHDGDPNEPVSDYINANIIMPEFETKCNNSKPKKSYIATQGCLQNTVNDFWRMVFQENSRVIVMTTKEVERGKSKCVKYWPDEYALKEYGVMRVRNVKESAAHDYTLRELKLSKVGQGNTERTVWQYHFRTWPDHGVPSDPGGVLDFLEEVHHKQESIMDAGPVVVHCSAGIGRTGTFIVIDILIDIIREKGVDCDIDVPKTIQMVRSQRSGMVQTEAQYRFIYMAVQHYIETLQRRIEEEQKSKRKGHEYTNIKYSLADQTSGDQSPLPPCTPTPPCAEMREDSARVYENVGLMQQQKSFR
# Assay: SHP2 Phosphatase Assay (DiFMUP fluorescence)
# Assay type: biochemical
# Conditions: SHP2 0.2 nM pre-incubated with 100 nM bi-phosphorylated activating peptide; compound 1000-0.05 nM, 30 min pre-incubation; DiFMUP 20 µM, 45 min, room temperature; 10-concentration dose-response
# Outline: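 SHP2 (0.2 nM) preactivated ≥10 min with 100 nM bis-phosphorylated peptide, then 30 min with compound (10 concentrations, 1000–0.05 nM) at room temperature, pH 7.2 HEPES buffer with DTT. DiFMUP (20 µM, added solution) reacted 45 min, pervanadate-stopped; fluorescence 350/450 nm. IC50 by 4-parameter logistic fit.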
row,IC50,Compound
1,7 nM,"Cc1cccc(-c2c(C)nc(N3CCC4(CC3)Cc3ncccc3[C@H]4N)c3ccnn23)c1F [Compound 166, (5S)-1'-[7-(2-fluoro-3-methyl-phenyl)-6-methyl-pyrazolo[1,5-a]pyrazin-4-yl]spiro[5,7-dihydrocyclopenta[b]pyridine-6,4'-piperidine]-5-amine]"
2,13 nM,"COc1cc2c(cn1)CC1(CCN(c3nc(C)c(-c4ccccc4F)n4nccc34)CC1)[C@@H]2N [Compound 131, (5S)-1'-[7-(2-fluorophenyl)-6-methyl-pyrazolo[1,5-a]pyrazin-4-yl] -3-methoxy-spiro [5,7-dihydrocyclopenta[c]pyridine-6,4'-piperidine]-5-amine]"
3,10 nM,"COc1cccc2c1CC1(CCN(c3nc(C)c(-c4ccccc4F)n4nccc34)CC1)[C@@H]2N [Compound 109, (1S)-1'-[7-(2-fluorophenyl)-6-methyl-pyrazolo[1,5-a]pyrazin-4-yl] -4-methoxy-spiro[indane-2,4'-piperidine]-1-amine]"
4,7 nM,"Cc1nc(N2CCC3(CC2)Cc2ncccc2[C@H]3N)c2ccnn2c1-c1cccc(F)c1C [Compound 197, (5S)-1'-[7-(3-fluoro-2-methyl-phenyl)-6-methyl-pyrazolo[1,5-a]pyrazin-4-yl]spiro[5,7-dihydrocyclopenta[b]pyridine-6,4'-piperidine]-5-amine]"
5,4 nM,"Cc1nccc(-c2c(C)nc(N3CCC4(CC3)Cc3ccncc3[C@H]4N)c3ccnn23)c1Cl [Compound 139, (7S)-1'-[7-(3-chloro-2-methyl-4-pyridyl)-6-methyl-pyrazolo[1,5-a]pyrazin-4-yl]spiro[5,7-dihydrocyclopenta[c]pyridine-6,4'-piperidine]-7-amine]"
6,7 nM,"Cc1cc2c(cn1)[C@@H](N)C1(CCN(c3nc(C)c(-c4ccccc4F)n4nccc34)CC1)C2 [Compound 60, (7S)-1'-[7-(2-fluorophenyl)-6-methyl-pyrazolo[1,5-a]pyrazin-4-yl]-3-methyl-spiro[5,7-dihydrocyclopenta[c]pyridine-6,4'-piperidine]-7-amine]"
7,23 nM,"COc1ccc2c(n1)[C@@H](N)C1(CCN(c3nc(C)c(-c4cccc(F)c4Cl)n4nccc34)CC1)C2 [Compound 215, (7S)-1'-[7-(2-chloro-3-fluoro-phenyl)-6-methyl-pyrazolo[1,5-a]pyrazin-4-yl]-2-methoxy-spiro[5,7-dihydrocyclopenta[b]pyridine-6,4'-piperidine]-7-amine]"
8,7 nM,"COc1cccc(-c2c(C)nc(N3CCC4(CC3)Cc3ncccc3[C@H]4N)c3ccnn23)c1F [Compound 4, (5S)-1'-[7-(2-fluoro-3-methoxy-phenyl)-6-methyl-pyrazolo [1 ,5-a]pyrazin-4-yl]spiro[5,7-dihydrocyclopenta[b]pyridine-6,4'-piperidine] -5-amine]"
9,154 nM,"Cc1nn(C)cc1-c1c(C)nc(N2CCC3(CC2)Cc2ncccc2[C@H]3N)c2ccnn12 [Compound 47, (5S)-1'-[7-(1,3-dimethylpyrazol-4-yl)-6-methyl-pyrazolo[1,5-a]pyrazin-4-yl]spiro [5,7-dihydrocyclopenta[b]pyridine-6,4'-piperidine]-5-amine]"

# Continued, molecule first:
row,Compound,IC50
1,"Cc1nc(N2CCC3(CC2)Cc2ncccc2[C@H]3N)c2ccnn2c1-c1cccs1 [Compound 99, (5S)-1'-[6-methyl-7-(2-thienyl)pyrazolo[1,5-a]pyrazin-4-yl]spiro [5,7-dihydrocyclopenta[b]pyridine-6,4'-piperidine]-5-amine hydrochloride]",9 nM
2,"Cc1nc(N2CCC3(CC2)Cc2ncccc2[C@H]3N)c2ccnn2c1-c1ccncc1F [Compound 71, (5S)-1'-[7-(3-fluoro-4-pyridyl)-6-methyl-pyrazolo[1,5-a]pyrazin-4-yl]spiro[5,7-dihydrocyclopenta[b]pyridine-6,4'-piperidine]-5-amine hydrochloride]",30 nM
3,"Cc1nc(N2CCC3(CC2)Cc2c(F)cccc2[C@H]3N)c2ccnn2c1-c1cnc(C)n1C [Compound 97, (1S)-1'-[7-(2,3-dimethylimidazol-4-yl)-6-methyl-pyrazolo[1,5-a]pyrazin-4-yl]-4-fluoro-spiro[indane-2,4'-piperidine]-1-amine hydrochloride]",42 nM
4,"Cc1nc(N2CCC3(CC2)Cc2ncccc2[C@H]3N)c2ccnn2c1-c1ccnc(C(F)(F)F)c1F [Compound 41, (5S)-1'-[7-[3-fluoro-2-(trifluoromethyl)-4-pyridyl]-6-methyl-pyrazolo[1,5-a]pyrazin-4-yl]spiro[5,7-dihydrocyclopenta[b]pyridine-6,4'-piperidine]-5-amine]",15 nM
5,"Cc1nc(N2CCC3(CC2)Cc2ncccc2[C@H]3N)c2ccnn2c1-c1cncs1 [Compound 157, (5S)-1'-(6-methyl-7-thiazol-5-yl-pyrazolo[1,5-a]pyrazin-4-yl)spiro[5,7-dihydrocyclopenta[b]pyridine-6,4'-piperidine] -5-amine hydrochloride]",72 nM
6,"COc1ccc2c(c1)[C@@H](N)C1(CCN(c3nc(C)c(-c4cnn(C)c4Cl)n4nccc34)CC1)C2 [Compound 126, (1S)-1'-[7-(5-chloro-1-methyl-pyrazol-4-yl)-6-methyl-pyrazolo[1,5-a]pyrazin-4-yl] -6-methoxy-spiro[indane-2,4'-piperidine]-1-amine hydrochloride]",4 nM
7,"Cc1ccc2c(n1)CC1(CCN(c3nc(C)c(-c4ccccc4)n4nccc34)CC1)[C@@H]2N [Compound 107, (5 S)-2-methyl-1'-(6-methyl-7-phenyl-pyrazolo[1,5-a]pyrazin-4-yl)spiro[5,7-dihydrocyclopenta[b]pyridine-6,4'-piperidine]-5-amine hydrochloride]",12 nM
8,"Cc1nc(N2CCC3(CC2)Cc2ncccc2[C@H]3N)c2ccnn2c1-c1ccc2nccnc2c1F [Compound 78, (5S)-1'-[7-(5-fluoroquinoxalin-6-yl)-6-methyl-pyrazolo[1,5-a]pyrazin-4-yl]spiro [5,7-dihydrocyclopenta[b]pyridine-6,4'-piperidine] -5-amine hydrochloride]",12 nM
9,"Cc1nc(N2CCC3(CC2)Cc2ncccc2[C@H]3N)c2ccnn2c1-c1ccc(Cl)s1 [Compound 53, (5S)-1'-[7-(5-chloro-2-thienyl)-6-methyl-pyrazolo[1,5-a]pyrazin-4-yl]spiro[5,7-dihydrocyclopenta[b]pyridine-6,4'-piperidine]-5-amine]",3 nM
10,"Cc1nc(N2CCC3(CC2)Cc2ncccc2[C@H]3N)c2ccnn2c1-c1ccc2c(c1F)OCCO2 [Compound 34, (5S)-1'-[7-(5-fluoro-2,3-dihydro-1,4-benzodioxin-6-yl)-6-methyl-pyrazolo[1,5-a]pyrazin-4-yl]spiro[5,7-dihydrocyclopenta[b]pyridine-6,4'-piperidine]-5-amine]",3 nM
11,"Cc1nccc(-c2c(C)nc(N3CCC4(CC3)Cc3scnc3[C@H]4N)c3ccnn23)c1Cl [Compound 69, (4S)-1'-[7-(3-chloro-2-methyl-4-pyridyl)-6-methyl-pyrazolo[1,5-a]pyrazin-4-yl]spiro[4,6-dihydrocyclopenta[d]thiazole-5,4'-piperidine]-4-amine hydrochloride]",10 nM
12,"Cc1nc(N2CCC3(CC2)Cc2ncsc2[C@H]3N)c2ccnn2c1-c1ccccc1 [Compound 74, (6S)-1'-(6-methyl-7-phenyl-pyrazolo [1,5-a]pyrazin-4-yl)spiro[4,6-dihydrocyclopenta[d]thiazole-5,4'-piperidine] -6-amine hydrochloride]",5 nM
13,"Cc1nc2c(s1)CC1(CCN(c3nc(C)c(-c4ccccc4F)n4nccc34)CC1)[C@@H]2N [Compound 104, (4S)-1'-[7-(2-fluorophenyl)-6-methyl-pyrazolo[1,5-a]pyrazin-4-yl]-2-methyl-spiro[4,6-dihydrocyclopenta[d]thiazole-5,4'-piperidine]-4-amine hydrochloride]",9 nM
14,"Cc1nc(N2CCC3(CC2)Cc2c(F)cc(F)cc2[C@H]3N)c2ccnn2c1-c1cnn(C)c1C [Compound 102, (1S)-1'-[7-(1,5-dimethylpyrazol-4-yl)-6-methyl-pyrazolo[1,5-a]pyrazin-4-yl]-4,6-difluoro-spiro[indane-2,4'-piperidine]-1-amine hydrochloride]",17 nM
15,"Cc1nc(N2CCC3(CC2)Cc2nc(C(F)F)ccc2[C@H]3N)c2ccnn2c1-c1cnn(C)c1C [Compound 61, (5S)-2-(difluoromethyl)-1'-[7-(1,5-dimethylpyrazol-4-yl)-6-methyl-pyrazolo[1,5-a]pyrazin-4-yl]spiro [5,7-dihydrocyclopenta[b]pyridine-6,4'-piperidine]-5-amine]",211 nM
16,"Cc1nc(N2CCC3(CC2)Oc2ccccc2[C@H]3N)c2ccnn2c1-c1cccc(F)c1Cl [Compound 20, (3R)-1'-[7-(2-chloro-3-fluorophenyl)-6-methyl-pyrazolo[1,5-a]pyrazin-4-yl]spiro[3H-benzofuran-2,4'-piperidine]-3-amine]",115 nM
